Test results from PMC10724569 (Heliyon, 2023).

Tested on: VRBMP-1 binding to ACE2 on NOK cells
Assay type: cell-based, human

For diminazene aceturate [DIZE], the “Binding of VRBMP-1 to NOK cells after DIZE treatment” value was “significantly reduced binding of VRBMP-1 at all three concentrations in a dose-dependent manner” and the “Reduction of VRBMP-1 binding, decoy peptides and DIZE each alone” value was “significantly reduced the binding of VRBMP-1 with nearly the same potency”.
